For the experiment, the target named is T1, TLR7 (Homo sapiens, UniProt Q9NYK1).
T1 construct: Fresh blood was collected from normal human donors; endogenous in cells; host or cells: human PBMCs from fresh donor blood
T1 sequence (Q9NYK1 27-1049): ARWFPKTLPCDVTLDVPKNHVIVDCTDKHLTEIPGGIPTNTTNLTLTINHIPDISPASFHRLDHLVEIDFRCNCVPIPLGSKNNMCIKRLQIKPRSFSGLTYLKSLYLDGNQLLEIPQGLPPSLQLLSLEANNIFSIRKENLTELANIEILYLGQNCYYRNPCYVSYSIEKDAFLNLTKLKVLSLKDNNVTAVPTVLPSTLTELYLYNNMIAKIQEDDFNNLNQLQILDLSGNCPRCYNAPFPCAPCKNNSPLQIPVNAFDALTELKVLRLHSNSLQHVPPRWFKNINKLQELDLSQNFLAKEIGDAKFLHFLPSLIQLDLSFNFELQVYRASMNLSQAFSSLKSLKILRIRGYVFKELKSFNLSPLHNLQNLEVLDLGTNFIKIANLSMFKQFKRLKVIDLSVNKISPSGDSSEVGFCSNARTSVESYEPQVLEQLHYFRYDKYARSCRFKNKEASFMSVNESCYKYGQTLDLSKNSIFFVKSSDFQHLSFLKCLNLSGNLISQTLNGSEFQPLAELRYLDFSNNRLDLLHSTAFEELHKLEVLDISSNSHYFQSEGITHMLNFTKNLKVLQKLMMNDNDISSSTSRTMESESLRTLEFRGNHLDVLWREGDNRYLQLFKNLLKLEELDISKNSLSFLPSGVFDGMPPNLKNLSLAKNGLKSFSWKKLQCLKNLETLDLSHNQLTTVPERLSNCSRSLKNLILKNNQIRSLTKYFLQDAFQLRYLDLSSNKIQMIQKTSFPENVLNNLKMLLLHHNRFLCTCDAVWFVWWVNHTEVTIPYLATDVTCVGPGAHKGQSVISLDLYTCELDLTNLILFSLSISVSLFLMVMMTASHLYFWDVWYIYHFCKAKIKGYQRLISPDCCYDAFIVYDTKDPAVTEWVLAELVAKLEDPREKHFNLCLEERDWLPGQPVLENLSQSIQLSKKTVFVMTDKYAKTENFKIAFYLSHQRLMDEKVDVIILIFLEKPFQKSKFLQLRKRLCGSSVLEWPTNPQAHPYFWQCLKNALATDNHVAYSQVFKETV
The experiment is described as follows: huPBMC TLR7 Antagonist IFNα Assay. It counts as cell-based. The note with it: human PBMCs stimulated with ssRNA40 10 μg/mL (DOTAP), 14-16 hrs; IFNα2b AlphaLISA read-out. The gist of the method:
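Human PBMCs from fresh donor blood (150,000 cells/well) stimulated 14–16 h at 37 °C with DOTAP-complexed ssRNA40 (final 1 μg/ml for TLR8, 10 μg/mL for TLR7) or ODN2216 (final 0.3 μM, TLR9), 0.25% DMSO, ten-point 1/3 compound dilutions. Supernatant IL-6 read by HTRF (TLR8); IFNα by IFNα2b AlphaLISA (TLR7/TLR9).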

For `CCN(C)CC(=O)NC12CCC(Cn3nc(C)c4c3CCN(c3cc(C)nc5c3cnn5C)C4)(CC1)CC2` [compound 132, N-(4-((5-(1,6-dimethyl-1H-pyrazolo[3,4-b]pyridin-4-yl)-3-methyl-4,5,6,7-tetrahydro-1H-pyrazolo[4,3-c]pyridin-1-yl)methyl)bicyclo[2.2.2]octan-1-yl)-2-(ethyl(methyl)amino)acetamide], the IC50 was under 0.508 nM.
Take `[2H]C([2H])([2H])N(CC(=O)NC12CCC(Cn3nc(C)c4c3CCN(c3cc(C)nc5c3cnn5C)C4)(CC1)CC2)C([2H])([2H])[2H]` [compound 134, 2-(bis(trideuteromethyl)amino)-N-(4-((5-(1,6-dimethyl-1H-pyrazolo[3,4-b]pyridin-4-yl)-3-methyl-4,5,6,7-tetrahydro-1H-pyrazolo[4,3-c]pyridin-1-yl)methyl)bicyclo[2.2.2]octan-1-yl)acetamide]: the half-inhibitory concentration (IC50) came to 1 nM.
To `Cc1cc(N2CCc3c(c(C)nn3CC34CCC(NCC5(CO)COC5)(CC3)CC4)C2)c2cnn(C)c2n1` [compound 137, (3-(((4-((5-(1,6-dimethyl-1H-pyrazolo[3,4-b]pyridin-4-yl)-3-methyl-4,5,6,7-tetrahydro-1H-pyrazolo[4,3-c]pyridin-1-yl)methyl)bicyclo[2.2.2]octan-1-yl)amino)methyl)oxetan-3-yl)methanol] belongs 72 nM; to `CCn1ncc2c(N3CCc4c(c(C)nn4CC45CCC(NC(=O)[C@@H]6COCCN6)(CC4)CC5)C3)cc(C)nc21` [compound 141, (S)-N-(4-((5-(1-ethyl-6-methyl-1H-pyrazolo[3,4-b]pyridin-4-yl)-3-methyl-4,5,6,7-tetrahydro-1H-pyrazolo[4,3-c]pyridin-1-yl)methyl)bicyclo[2.2.2]octan-1-yl)morpholine-3-carboxamide], 32 nM; to `CNCCC(=O)NC12CCC(Cn3nc(C)c4c3CCN(c3cc(C)nc5c3cnn5C)C4)(CC1)CC2` [compound 142, N-(4-((5-(1,6-dimethyl-1H-pyrazolo[3,4-b]pyridin-4-yl)-3-methyl-4,5,6,7-tetrahydro-1H-pyrazolo[4,3-c]pyridin-1-yl)methyl)bicyclo[2.2.2]octan-1-yl)-3-(methylamino)propanamide], 47 nM.
For `Cc1cc(N2CCc3c(c(C)nn3CC34CCC(NC5CCC5)(CC3)CO4)C2)c2cnn(C)c2n1` [compound 143, N-cyclobutyl-1-((5-(1,6-dimethyl-1H-pyrazolo[3,4-b]pyridin-4-yl)-3-methyl-4,5,6,7-tetrahydro-1H-pyrazolo[4,3-c]pyridin-1-yl)methyl)-2-oxabicyclo[2.2.2]octan-4-amine], the IC50 is 41 nM.
In the case of `Cc1nn(CC23CCC(NC4CCC4)(CC2)CC3)c2c1CN(c1ccnc(-c3ccccc3)c1)CC2` [compound 144, N-cyclobutyl-4-((3-methyl-5-(2-phenylpyridin-4-yl)-4,5,6,7-tetrahydro-1H-pyrazolo[4,3-c]pyridin-1-yl)methyl)bicyclo[2.2.2]octan-1-amine], the 50% inhibitory concentration (IC50) turned out to be 73 nM.
As for `Cc1cc(N2CCc3c(c(C)nn3CC34CCC(NC(=O)OC(C)(C)C)(CC3)C4)C2)c2cnn(C)c2n1` [compound 148, tert-butyl (4-((5-(1,6-dimethyl-1H-pyrazolo[3,4-b]pyridin-4-yl)-3-methyl-4,5,6,7-tetrahydro-1H-pyrazolo[4,3-c]pyridin-1-yl)methyl)bicyclo[2.2.1]heptan-1-yl)carbamate], the half-maximal inhibitory concentration (IC50) turned out to be 54 nM.

Values taken from US20240376099A1, “COMPOUNDS AND COMPOSITIONS AS INHIBITORS OF ENDOSOMAL TOLL-LIKE RECEPTORS” (Novartis AG, priority 2016, published 2024).
